Assay results from PubChem BioAssay AID248 (DTP/NCI, 2004).
Where “and” joins values, the source holds several entries; their conditions need not be identical. Identical values can stand only once. Inconclusive results and toxic doses are left out. No stated cut-off is given here; in the data, active means T/C of 150% or more; inactive means T/C below 125%.

Test system: L1210 leukemia ip in BDF1 mice, survival T/C
Experiment: NCI In Vivo Anticancer Drug Screen. Data for tumor model L1210 Leukemia (intraperitoneal) in B6D2F1 (BDF1) mice
Settings: endpoint: mean survival time, higher = longer survival
In short: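 Survival endpoint. Drug-treated group vs vehicle group, expressed as T divided by C. Tumor passaged by transplantation.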

[1] = dose: 100.0 mg/kg/injection, schedule: Q01DX009 (ip), vehicle: saline with Tween-80
[2] = dose: 100.0 mg/kg/injection, schedule: Q04DX003 (ip), vehicle: saline with Tween-80
[3] = dose: 200.0 mg/kg/injection, schedule: Q01DX009 (ip), vehicle: saline with Tween-80
[4] = dose: 200.0 mg/kg/injection, schedule: Q04DX003 (ip), vehicle: saline with Tween-80
[5] = dose: 400.0 mg/kg/injection, schedule: Q01DX009 (ip), vehicle: saline with Tween-80
[6] = dose: 400.0 mg/kg/injection, schedule: Q04DX003 (ip), vehicle: saline with Tween-80
[7] = dose: 100.0 mg/kg/injection, schedule: Q01DX009 (ip), vehicle: saline
[8] = dose: 100.0 mg/kg/injection, schedule: Q04DX003 (ip), vehicle: saline
[9] = dose: 200.0 mg/kg/injection, schedule: Q01DX009 (ip), vehicle: saline
[10] = dose: 200.0 mg/kg/injection, schedule: Q04DX003 (ip), vehicle: saline
[11] = dose: 400.0 mg/kg/injection, schedule: Q01DX009 (ip), vehicle: saline
[12] = dose: 100.0 mg/kg/injection, schedule: Q01DX009 (ip), vehicle: Klucel (hydroxypropylcellulose) (HPC)
[13] = dose: 200.0 mg/kg/injection, schedule: Q01DX009 (ip), vehicle: Klucel (hydroxypropylcellulose) (HPC)
[14] = dose: 400.0 mg/kg/injection, schedule: Q01DX009 (ip), vehicle: Klucel (hydroxypropylcellulose) (HPC)
[15] = dose: 50.0 mg/kg/injection, schedule: Q01DX009 (ip), vehicle: saline
[16] = dose: 100.0 mg/kg/injection, schedule: Q01DX001 (ip), vehicle: saline
[17] = dose: 200.0 mg/kg/injection, schedule: Q01DX001 (ip), vehicle: saline
[18] = dose: 400.0 mg/kg/injection, schedule: Q01DX001 (ip), vehicle: saline
[19] = dose: 100.0 mg/kg/injection, schedule: Q04DX002 (ip), vehicle: Klucel (hydroxypropylcellulose) (HPC)
[20] = dose: 100.0 mg/kg/injection, schedule: Q04DX003 (ip), vehicle: Klucel (hydroxypropylcellulose) (HPC)
[21] = dose: 200.0 mg/kg/injection, schedule: Q04DX003 (ip), vehicle: Klucel (hydroxypropylcellulose) (HPC)
[22] = dose: 400.0 mg/kg/injection, schedule: Q04DX003 (ip), vehicle: Klucel (hydroxypropylcellulose) (HPC)

Measured: T/C

COC(=O)c1ccccc1NC(=O)Nc1cc(Cl)ccc1C
inactive: dose: 100.0 mg/kg/injection, schedule: Q01DX001 (ip), vehicle: saline with Tween-80 87 % of control | [1] 91 % of control and 92 % of control | dose: 100.0 mg/kg/injection, schedule: Q04DX002 (ip), vehicle: saline with Tween-80 95 % of control and 88 % of control | [2] 101 % of control | dose: 200.0 mg/kg/injection, schedule: Q01DX001 (ip), vehicle: saline with Tween-80 90 % of control | [3] 93 % of control and 94 % of control | dose: 200.0 mg/kg/injection, schedule: Q04DX002 (ip), vehicle: saline with Tween-80 88 % of control and 91 % of control | [4] 92 % of control | dose: 400.0 mg/kg/injection, schedule: Q01DX001 (ip), vehicle: saline with Tween-80 88 % of control | [5] 94 % of control and 101 % of control | dose: 400.0 mg/kg/injection, schedule: Q04DX002 (ip), vehicle: saline with Tween-80 93 % of control and 91 % of control | [6] 90 % of control

COc1cc[n+]([O-])cc1
inactive: [7] 103 % of control | dose: 100.0 mg/kg/injection, schedule: Q01DX Z (ip), vehicle: saline 102 % of control and 106 % of control | [8] 121 % of control | dose: 150.0 mg/kg/injection, schedule: Q01DX Z (ip), vehicle: saline 103 % of control and 107 % of control | [9] 100 % of control | [10] 114 % of control | dose: 225.0 mg/kg/injection, schedule: Q01DX Z (ip), vehicle: saline 95 % of control and 97 % of control | dose: 300.0 mg/kg/injection, schedule: Q01DX Z (ip), vehicle: saline 92 % of control and 106 % of control | [11] 99 % of control | dose: 400.0 mg/kg/injection, schedule: Q04DX003 (ip), vehicle: saline 95 % of control

CC(=O)[C@H]1CC[C@H]2[C@@H]3C[C@H](F)C4=CC(=O)CC[C@]4(C)[C@@]3(F)[C@@H](O)C[C@]12C
inactive: dose: 50.0 mg/kg/injection, schedule: Q01DX009 (sc), vehicle: steriod suspending solution 124 % of control | dose: 100.0 mg/kg/injection, schedule: Q01DX009 (sc), vehicle: steriod suspending solution 101 % of control | dose: 100.0 mg/kg/injection, schedule: Q04DX003 (sc), vehicle: steriod suspending solution 97 % of control | dose: 200.0 mg/kg/injection, schedule: Q01DX009 (sc), vehicle: steriod suspending solution 104 % of control | dose: 200.0 mg/kg/injection, schedule: Q04DX003 (sc), vehicle: steriod suspending solution 105 % of control | dose: 400.0 mg/kg/injection, schedule: Q04DX003 (sc), vehicle: steriod suspending solution 103 % of control

CCOc1ccc(Br)cc1C=O
inactive: [1] 97 % of control | [2] 97 % of control | [3] 91 % of control | [4] 97 % of control | [5] 91 % of control | [6] 101 % of control

C[N+](C)(CC(=O)Nc1cccc(C(F)(F)F)c1)CC(=O)Nc1cccc(C(F)(F)F)c1
inactive: dose: 12.5 mg/kg/injection, schedule: Q01DX009 (ip), vehicle: saline with Tween-80 88 % of control | dose: 25.0 mg/kg/injection, schedule: Q01DX009 (ip), vehicle: saline with Tween-80 94 % of control | dose: 50.0 mg/kg/injection, schedule: Q01DX009 (ip), vehicle: saline with Tween-80 113 % of control

O=C1C(Br)=CC(Br)(Br)C=C1Br
inactive: [2] 92 % of control | [4] 95 % of control | [6] 93 % of control

O=C1NC(=S)S/C1=C\c1c(Cl)cccc1Cl
inactive: dose: 75.0 mg/kg/injection, schedule: Q01DX001 (ip), vehicle: other 97 % of control

Cc1ccc(C)c(-n2nnc3ccccc3c2=O)c1
inactive: [1] 89 % of control | [2] 95 % of control | [3] 92 % of control | [4] 101 % of control | [5] 91 % of control | [6] 96 % of control

O=C(CCN1C(=O)CCC1=O)NCCc1ccccc1
inactive: [1] 97 % of control | [3] 98 % of control | [5] 101 % of control

Cc1cc(C)c([N+](=O)[O-])c(C)c1
inactive: [12] 104 % of control | [13] 97 % of control | [14] 92 % of control

CCN(CC)C(C)COC(=O)c1cc(=O)n(C)c2ccccc12 (configuration not stated)
inactive: [15] 101 % of control | [7] 98 % of control | [8] 95 % of control | [9] 89 % of control | [10] 97 % of control

COc1c2occc2c(OC)c2c(=O)cc(/C=C/c3ccc4ccccc4n3)oc12
inactive: [16] 95 % of control | [17] 95 % of control | [18] 96 % of control

CC(=O)Nc1ccc(SC(Sc2ccc(NC(C)=O)cc2)c2ccccc2)cc1
inactive: [16] 92 % of control | [17] 92 % of control | [18] 92 % of control

O=C1OC(c2cccc(Cl)c2)=N/C1=C\c1ccccc1
inactive: [19] 98 % of control | dose: 400.0 mg/kg/injection, schedule: Q04DX002 (ip), vehicle: Klucel (hydroxypropylcellulose) (HPC) 104 % of control

COC(=O)C(CO)NC(c1ccccc1)(c1ccccc1)c1ccccc1 (configuration not stated)
inactive: [15] 91 % of control | [7] 95 % of control | [9] 92 % of control | [11] 97 % of control

Cc1ccc(Nc2ccc([N+](=O)[O-])cc2[N+](=O)[O-])cc1C
inactive: dose: 50.0 mg/kg/injection, schedule: Q04DX003 (ip), vehicle: Klucel (hydroxypropylcellulose) (HPC) 102 % of control | [12] 108 % of control | [20] 102 % of control | [13] 90 % of control | [21] 98 % of control and 104 % of control | [14] 97 % of control | [22] 89 % of control

COc1cc(/C=N/N(c2ccccc2)C2CCS(=O)(=O)C2)ccc1O (configuration not stated)
inactive: dose: 100.0 mg/kg/injection, schedule: Q04DX002 (ip), vehicle: saline 93 % of control | dose: 200.0 mg/kg/injection, schedule: Q04DX002 (ip), vehicle: saline 101 % of control | dose: 400.0 mg/kg/injection, schedule: Q04DX002 (ip), vehicle: saline 93 % of control

O=NC1C(Cl)C2CC1C1C=CCC12 (configuration not stated)
inactive: dose: 12.5 mg/kg/injection, schedule: Q01DX009 (ip), vehicle: Klucel (hydroxypropylcellulose) (HPC) 96 % of control | dose: 25.0 mg/kg/injection, schedule: Q01DX009 (ip), vehicle: Klucel (hydroxypropylcellulose) (HPC) 98 % of control | dose: 50.0 mg/kg/injection, schedule: Q01DX009 (ip), vehicle: Klucel (hydroxypropylcellulose) (HPC) 91 % of control | [1] 97 % of control | [20] 94 % of control | [21] 92 % of control | [22] 87 % of control

CC(=O)Nc1ccc(S(=O)(=O)Nc2cc(C)c(C)cc2C)cc1
inactive: [19] 103 % of control | dose: 200.0 mg/kg/injection, schedule: Q04DX002 (ip), vehicle: Klucel (hydroxypropylcellulose) (HPC) 91 % of control

SC1c2ccccc2-c2ccc(Br)cc21 (configuration not stated)
inactive: [16] 101 % of control | [17] 99 % of control | [18] 97 % of control
